Test results taken from patent publication US8012956B2, “Tropane compounds” (Exelixis, Inc., priority 2007, dated 2011).

Target: HSP90 (Homo sapiens, UniProt P07900)
Experiment: HSP90 inhibition (HSP90 IC50)
Format: biochemical

Row | IC50 [nM] | SMILES
1 | 1000 to 2000 | COc1cccc(C(=O)N[C@H]2C[C@H]3CC[C@@H](C2)N3c2ccc(C(=O)NCc3c(F)cccc3OC)cn2)c1C [N-{[2-fluoro-6-(methyloxy)phenyl]methyl}-6-[3-endo-({[2-methyl-3-(methyloxy)phenyl]carbonyl}amino)-8-azabicyclo[3.2.1]oct-8-yl]pyridine-3-carboxamide]
2 | 500 to 999 | COCCCNC(=O)c1ccc(N2[C@@H]3CC[C@H]2C[C@@H](NC(=O)c2cccc(OC)c2C)C3)nc1 [6-[3-endo-({[2-methyl-3-(methyloxy)phenyl]carbonyl}amino)-8-azabicyclo[3.2.1]oct-8-yl]-N-[3-(methyloxy)propyl]pyridine-3-carboxamide]
3 | 1000 to 2000 | COc1cccc(C(=O)N[C@H]2C[C@H]3CC[C@@H](C2)N3c2ccc(C(=O)NCCN3CCOCC3)cn2)c1C [6-[3-endo-({[2-methyl-3-(methyloxy)phenyl]carbonyl}amino)-8-azabicyclo[3.2.1]oct-8-yl]-N-(2-morpholin-4-ylethyl)pyridine-3-carboxamide]
4 | < 500 | COc1ccc(CNC(=O)c2ccc(N3[C@@H]4CC[C@H]3C[C@@H](NC(=O)c3cccc(OC)c3C)C4)nc2)c(F)c1 [N-{[2-fluoro-4-(methyloxy)phenyl]methyl}-6-[3-endo-({[2-methyl-3-(methyloxy)phenyl]carbonyl}amino)-8-azabicyclo[3.2.1]oct-8-yl]pyridine-3-carboxamide]
5 | 500 to 999 | COc1cccc(C(=O)N[C@H]2C[C@H]3CC[C@@H](C2)N3c2ccc(C(=O)NC3CCN(C)CC3)cn2)c1C [6-[3-endo-({[2-methyl-3-(methyloxy)phenyl]carbonyl}amino)-8-azabicyclo[3.2.1]oct-8-yl]-N-(1-methylpiperidin-4-yl)pyridine-3-carboxamide]
6 | 500 to 999 | COc1ccc(NC(=O)c2ccc(N3[C@@H]4CC[C@H]3C[C@@H](NC(=O)c3cccc(OC)c3C)C4)nc2)cc1 [6-[3-endo-({[2-methyl-3-(methyloxy)phenyl]carbonyl}amino)-8-azabicyclo[3.2.1]oct-8-yl]-N-[4-(methyloxy)phenyl]pyridine-3-carboxamide]
7 | 500 to 999 | CNC(=O)[C@@H](NC(=O)c1ccc(N2C3CCC2CC(NC(=O)c2cccc(OC)c2C)C3)nc1)c1ccc(OC)cc1 (stereo partly drawn) [N-{(1S)-2-(methylamino)-1-[4-(methyloxy)phenyl]-2-oxoethyl}-6-[3-endo-({[2-methyl-3-(methyloxy)phenyl]carbonyl}amino)-8-azabicyclo[3.2.1]oct-8-yl]pyridine-3-carboxamide]

Further lines, the compound ahead of its results:

Row | SMILES | IC50 [nM]
8 | CCC(CC)Nc1cc(C(=O)NC2CC3CCC(C2)N3c2ccc(C(=O)N[C@H]3CCCNC3)cn2)ccc1C(N)=O (stereo partly drawn) [2-[(1-ethylpropyl)amino]-N4-[8-(5-{[(3S)-piperidin-3-ylamino]carbonyl}pyridin-2-yl)-8-azabicyclo[3.2.1]oct-3-endo-yl]benzene-1,4-dicarboxamide] | < 500
9 | CCC(CC)Nc1cc(C(=O)N[C@H]2C[C@H]3CC[C@@H](C2)N3c2ccc(C(=O)C3CC3)cn2)c(F)cc1C(N)=O [N-{8-[5-(cyclopropylcarbonyl)pyridin-2-yl]-8-azabicyclo[3.2.1]oct-3-endo-yl}-5-[(1-ethylpropyl)amino]-2-fluorobenzene-1,4-dicarboxamide] | < 500
10 | Cc1cc(C(N)=O)c(NC(C2CC2)C2CC2)cc1C(=O)NC1CC2CCC(C1)N2c1ccc(C(=O)C2CC2)cn1 (stereo not drawn) [N-{8-[5-(cyclopropylcarbonyl)pyridin-2-yl]-8-azabicyclo[3.2.1]oct-3-endo-yl}-5-[(dicyclopropylmethyl)amino]-2-methylbenzene-1,4-dicarboxamide] | < 500
11 | COc1ccc(Nc2cc(C(=O)N[C@H]3C[C@H]4CC[C@@H](C3)N4c3ccc(C(N)=O)cn3)ccc2C(N)=O)cc1OCCN(C)C [N4-{8-[5-(aminocarbonyl)pyridin-2-yl]-8-azabicyclo[3.2.1]oct-3-endo-yl}-2-{[3-{[2-(dimethylamino)ethyl]oxy}-4-(methyloxy)phenyl]amino}benzene-1,4-dicarboxamide] | < 500
12 | CC(=O)c1ccc(N2[C@@H]3CC[C@H]2C[C@@H](NC(=O)c2ccc(C(N)=O)c(NCC(C)C)c2)C3)nc1 [N4-[8-(5-acetylpyridin-2-yl)-8-azabicyclo[3.2.1]oct-3-endo-yl]-2-[(2-methylpropyl)amino]benzefle-1,4-dicarboxamide] | < 500
13 | Cc1cc(CO)ccc1C(=O)N[C@H]1C[C@H]2CC[C@@H](C1)N2c1ccc(C(=O)NCc2ccccc2)cn1 [6-[3-endo-({[4-(hydroxymethyl)-2-methylphenyl]carbonyl}amino)-8-azabicyclo[3.2.1]oct-8-yl]-N-(phenylmethyl)pyridine-3-carboxamide] | < 500
14 | CCC(CC)Nc1cc(C(=O)N[C@H]2C[C@H]3CC[C@@H](C2)N3c2ccc(C(=O)CCN3CCCCC3)cn2)ccc1C(N)=O [2-[(1-ethylpropyl)amino]-N4-{8-[5-(3-piperidin-1-ylpropanoyl)pyridin-2-yl]-8-azabicyclo[3.2.1]oct-3-endo-yl}benzene-1,4-dicarboxamide] | < 500
15 | Cc1cc(C(N)=O)c(NC2CCCC2)cc1C(=O)N[C@H]1C[C@H]2CC[C@@H](C1)N2c1ccc(C(=O)C2CC2)cn1 [5-(cyclopentylamino)-N-{8-[5-(cyclopropylcarbonyl)pyridin-2-yl]-8-azabicyclo[3.2.1]oct-3-endo-yl}-2-methylbenzene-1,4-dicarboxamide] | < 500
16 | Cc1cc(C(N)=O)c(CC(C)C)cc1C(=O)N[C@H]1C[C@H]2CC[C@@H](C1)N2c1ccc(C(=O)C2CC2)cn1 [N-{8-(5-(cyclopropylcarbonyl)pyridin-2-yl]-8-azabicyclo[3.2.1]oct-3-endo-yl}-2-methyl-5-(2-methylpropyl)benzene-1,4-dicarboxamide] | < 500
17 | CCC(Nc1cc(C(=O)N[C@H]2C[C@H]3CC[C@@H](C2)N3c2ccc(C(=O)C3CC3)cn2)c(C)cc1C(N)=O)C(C)C (stereo partly drawn) [N-{8-[5-(cyclopropylcarbonyl)pyridin-2-yl]-8-azabicyclo[3.2.1]oct-3-endo-yl}-5-[(1-ethyl-2-methylpropyl)amino]-2-methylbenzene-1,4-dicarboxamide] | < 500
18 | Cc1cc(C(N)=O)c(N)cc1C(=O)N[C@H]1C[C@H]2CC[C@@H](C1)N2c1ccc(C(=O)C2CC2)cn1 [5-amino-N-{8-[5-(cyclopropylcarbonyl)pyridin-2-yl]-8-azabicyclo[3.2.1]oct-3-endo-yl}-2-methylbenzene-1,4-dicarboxamide] | < 500
19 | Cc1cc(C(=O)NC2CC3CCC(C2)N3c2ccc(C(=O)N[C@@H](C)c3ccc(N4CCN(C)CC4)cc3)cn2)c(C)cc1C(N)=O (stereo partly drawn) [2,5-dimethyl-N-(8-{5-[({(1S)-1-[4-(4-methylpiperazin-1-yl)phenyl]ethyl}amino)carbonyl]pyridin-2-yl}-8-azabicyclo[3.2.1]oct-3-endo-yl)benzene-1,4-dicarboxamide] | < 500
20 | Cc1cc(C(N)=O)c(NC(CF)CF)cc1C(=O)N[C@H]1C[C@H]2CC[C@@H](C1)N2c1ccc(C(=O)C2CC2)cn1 [N-{8-[5-(cyclopropylcarbonyl)pyridin-2-yl]-8-azabicyclo[3.2.1]oct-3-endo-yl}-5-{[2-fluoro-1-(fluoromethyl)ethyl]amino}-2-methylbenzene-1,4-dicarboxamide] | < 500
21 | COCCNc1cc(C(=O)N[C@H]2C[C@H]3CC[C@@H](C2)N3c2ccc(C(N)=O)cn2)ccc1C(N)=O [N4-{8-[5-(aminocarbonyl)pyridin-2-yl]-8-azabicyclo[3.2.1]oct-3-endo-yl}-2-{[2-(methyloxy)ethyl]amino}benzene-1,4-dicarboxamide] | < 500
